Assay results: publication PMC7587962, “Evaluation of Cytotoxicity and α-Glucosidase Inhibitory Activity of Amide and Polyamino-Derivatives of Lupane Triterpenoids” (Molecules, 2020)

Assays:
A498 = experiment: NCI-60 SRB screen: renal cancer A498; assay type: cell-based, human; details: A498
Ovarian Cancer subpanel = experiment: NCI-60 screen, subpanel Ovarian Cancer
OVCAR-4 = experiment: NCI-60 SRB screen: ovarian cancer OVCAR-4; assay type: cell-based; details: Homo sapiens; OVCAR-4; five concentrations, 48 h, SRB; read-out: GI50
NCI/ADR-RES = experiment: NCI-60 SRB screen: ovarian cancer NCI/ADR-RES; assay type: cell-based, human
TK-10 = experiment: NCI-60 SRB screen: renal cancer TK-10; assay type: cell-based, human; details: TK-10
SF-295 = experiment: NCI-60 SRB screen: CNS cancer SF-295; assay type: cell-based, human; details: SF-295
NCI-H226 = experiment: NCI-60 SRB screen: non-small cell lung cancer NCI-H226; assay type: cell-based, human; details: NCI-H226
T-47D = experiment: NCI-60 SRB screen: breast cancer T-47D; assay type: cell-based, human; details: T-47D
CAKI-1 = experiment: NCI-60 SRB screen: renal cancer CAKI-1; assay type: cell-based, human; details: CAKI-1
U251 = experiment: NCI-60 SRB screen: CNS cancer U251; assay type: cell-based; details: Homo sapiens, U251
OVCAR-8 = experiment: NCI-60 SRB screen: ovarian cancer OVCAR-8; assay type: cell-based, human; details: OVCAR-8
HOP-62 = experiment: NCI-60 SRB screen: non-small cell lung cancer HOP-62; assay type: cell-based, human; details: HOP-62
NCI-H322M = experiment: NCI-60 SRB screen: non-small cell lung cancer NCI-H322M; assay type: cell-based, human
SK-MEL-28 = experiment: NCI-60 SRB screen: melanoma SK-MEL-28; assay type: cell-based, human; details: SK-MEL-28
MOLT-4 = experiment: NCI-60 SRB screen: leukemia MOLT-4; assay type: cell-based; details: Homo sapiens, 48 h, MOLT-4
HS 578T = experiment: NCI-60 SRB screen: breast cancer HS 578T; assay type: cell-based, human; details: HS 578T
MALME-3M = experiment: NCI-60 SRB screen: melanoma MALME-3M; assay type: cell-based, human; details: MALME-3M
EKVX = experiment: NCI-60 SRB screen: non-small cell lung cancer EKVX; assay type: cell-based, human
M14 = experiment: NCI-60 SRB screen: melanoma M14; assay type: cell-based, human; details: M14
DU-145 = experiment: NCI-60 SRB screen: prostate cancer DU-145; assay type: cell-based, human; details: DU-145
CCRF-CEM = experiment: NCI-60 SRB screen: leukemia CCRF-CEM; assay type: cell-based; details: Homo sapiens, 48 h
MCF7 = experiment: NCI-60 SRB screen: breast cancer MCF7; assay type: cell-based; details: Homo sapiens, 48 h, MCF7
RXF 393 = experiment: NCI-60 SRB screen: renal cancer RXF 393; assay type: cell-based, human; details: RXF 393
SN12C = experiment: NCI-60 SRB screen: renal cancer SN12C; assay type: cell-based, human
RPMI-8226 = experiment: NCI-60 SRB screen: leukemia RPMI-8226; assay type: cell-based; details: Homo sapiens, 48 h, RPMI-8226
SR = experiment: NCI-60 SRB screen: leukemia SR; assay type: cell-based; details: Homo sapiens, 48 h
SNB-75 = experiment: NCI-60 SRB screen: CNS cancer SNB-75; assay type: cell-based, human; details: SNB-75
Prostate cancer subpanel = experiment: NCI-60 screen, subpanel Prostate cancer
OVCAR-5 = experiment: NCI-60 SRB screen: ovarian cancer OVCAR-5; assay type: cell-based, human; details: OVCAR-5
SK-OV-3 = experiment: NCI-60 SRB screen: ovarian cancer SK-OV-3; assay type: cell-based, human; details: SK-OV-3
786-0 = experiment: NCI-60 SRB screen: renal cancer 786-0; assay type: cell-based, human; details: 786-0
BT-549 = experiment: NCI-60 SRB screen: breast cancer BT-549; assay type: cell-based, human; details: BT-549
HOP-92 = experiment: NCI-60 SRB screen: non-small cell lung cancer HOP-92; assay type: cell-based, human; details: HOP-92
Colon Cancer subpanel = experiment: NCI-60 screen, subpanel Colon Cancer
UACC-257 = experiment: NCI-60 SRB screen: melanoma UACC-257; assay type: cell-based, human; details: UACC-257
[1] = Homo sapiens, five concentrations, 48 h, SRB, read-out: GI50
[2] = single dose 10 µM, read-out: Percentage Cell Growth
[3] = five concentrations, SRB, read-out: GI50

For `C=C(C)[C@@H]1CC[C@]2(C(=O)NCCNCCNCCN)CC[C@]3(C)[C@H](CC[C@@H]4[C@@]5(C)CC[C@H](O)C(C)(C)[C@@H]5CC[C@]43C)[C@@H]12` [Compound 6], the “Percentage Cell Growth” value (A498; single dose 10 µM) was −32.64%, the GI50 (A498; [1]) was 19.6 µM and the “MID b, average sensitivity of all cell line of particular subpanel” value (from here on “MID b, average sensitivity”) (Ovarian Cancer subpanel) was 14.10 µM. The “Selectivity, ratio MID a: MID b” value (Ovarian Cancer subpanel) was 0.86, the GI50 (OVCAR-4) was 14.1 µM and the GI50 (NCI/ADR-RES; [1]) was 18.9 µM. The “Percentage Cell Growth” value (NCI/ADR-RES; single dose 10 µM) was −13.05%, the GI50 (TK-10; [1]) was 15.8 µM and the “Percentage Cell Growth” value (TK-10; single dose 10 µM) was −67.30%. The GI50 (SF-295; [1]) was 13.8 µM, the “Percentage Cell Growth” value (SF-295; single dose 10 µM) was −84.72% and the GI50 (NCI-H226; [1]) was 15.5 µM. For the same compound, the “Percentage Cell Growth” value (NCI-H226; single dose 10 µM) was −23.56%, the GI50 (T-47D; Homo sapiens, T47D, five concentrations, 48 h, SRB, read-out: GI50) was 10.9 µM and the “Percentage Cell Growth” value (T-47D; single dose 10 µM) was −32.56%. The “Percentage Cell Growth” value (CAKI-1; single dose 10 µM) was −93.59%, the GI50 (CAKI-1; [1]) was 5.92 µM and the activity at 10 µM (U251; U-251, 48 h, single dose 10 µM, read-out: Percentage Cell Growth) was -71.7%. The GI50 (U251; U-251, five concentrations, 48 h, SRB, read-out: GI50) was 12.7 µM, the GI50 (OVCAR-8; [1]) was 18.8 µM and the “Percentage Cell Growth” value (OVCAR-8; single dose 10 µM) was −12.90%. For the same compound, the “Percentage Cell Growth” value (HOP-62; single dose 10 µM) was −69.12%, the GI50 (HOP-62; [1]) was 16.5 µM and the GI50 (NCI-H322M; [1]) was 15.1 µM. The “Percentage Cell Growth” value (NCI-H322M; single dose 10 µM) was −83.84%, the GI50 (SK-MEL-28; [1]) was 16 µM and the “Percentage Cell Growth” value (SK-MEL-28; single dose 10 µM) was −98.68%. For the same compound, the activity at 10 µM (MOLT-4; [2]) was 1.18%, the GI50 (MOLT-4; [3]) was 11.5 µM and the “Percentage Cell Growth” value (HS 578T; single dose 10 µM) was −23.26%. The GI50 (HS 578T; [1]) was 20.1 µM, the GI50 (MALME-3M; [1]) was 14.6 µM and the “Percentage Cell Growth” value (MALME-3M; single dose 10 µM) was −100.00%. The GI50 (EKVX; [1]) was 10.5 µM, the “Percentage Cell Growth” value (EKVX; single dose 10 µM) was −11.36% and the GI50 (M14; [1]) was 11 µM. The “Percentage Cell Growth” value (M14; single dose 10 µM) was −30.98%, the “Percentage Cell Growth” value (DU-145; single dose 10 µM) was −8.34% and the GI50 (DU-145; [1]) was 14.1 µM. It also gave an activity at 10 µM (CCRF-CEM; [2]) of 5.18%, a GI50 (CCRF-CEM; [3]) of 4.55 µM and an activity at 10 µM (MCF7; [2]) of -60.5%. The GI50 (MCF7; [3]) was 13.2 µM, the GI50 (RXF 393; [1]) was 13.2 µM and the “Percentage Cell Growth” value (RXF 393; single dose 10 µM) was −82.88%. For the same compound, the GI50 (SN12C; [1]) was 13.5 µM, the “Percentage Cell Growth” value (SN12C; single dose 10 µM) was −53.68% and the activity at 10 µM (RPMI-8226; [2]) was -8.15%. It also gave a GI50 (RPMI-8226; [3]) of 2.81 µM, an activity at 10 µM (SR; [2]) of -4.72% and a GI50 (SR; [3]) of 6.76 µM. The GI50 (SNB-75; [1]) was 11.1 µM, the “Percentage Cell Growth” value (SNB-75; single dose 10 µM) was −79.32% and the “MID b, average sensitivity” value (Prostate cancer subpanel) was 8.53 µM. The “Selectivity, ratio MID a: MID b” value (Prostate cancer subpanel) was 1.42, the GI50 (OVCAR-5; [1]) was 18.6 µM and the “Percentage Cell Growth” value (OVCAR-5; single dose 10 µM) was −83.37%. For the same compound, the GI50 (SK-OV-3; [1]) was 17.5 µM, the “Percentage Cell Growth” value (SK-OV-3; single dose 10 µM) was −14.17% and the “Percentage Cell Growth” value (786-0; single dose 10 µM) was −83.51%. For the same compound, the GI50 (786-0; [1]) was 12.4 µM, the “Percentage Cell Growth” value (BT-549; single dose 10 µM) was −51.94% and the GI50 (BT-549; [1]) was 15 µM. The “Percentage Cell Growth” value (HOP-92; single dose 10 µM) was −65.35%, the GI50 (HOP-92; [1]) was 4.61 µM and the “MID b, average sensitivity” value (Colon Cancer subpanel) was 11.72 µM. For the same compound, the “Selectivity, ratio MID a: MID b” value (Colon Cancer subpanel) was 1.04, the GI50 (UACC-257; [1]) was 15.1 µM and the “Percentage Cell Growth” value (UACC-257; single dose 10 µM) was −39.58%.
